Experiments:
[1] = test system: Sprague-Dawley rats with induced Acute Kidney Injury; assay: Renal Ischemia-Reperfusion Induced Acute Kidney Injury in rats; assay type: in vivo, rat; conditions: for Creatinine: serum 24 hours after ligation/release
Protocol: With the exception of Group (i), i.e. the ‘sham group’, renal Ischemia-Reperfusion Induced Acute Kidney Injury (AKI) was induced in the rats by ligation of bilateral renal arteries for 30 min and then ligation was released. Animals in the control and treatment groups were administered intraperitoneal injections three times (1 h before ligation, 4 h and 8 h after ligation). Blood was taken from the animals 24 hours after the ligation/release procedure and analyzed for serum Creatinine and Blood Urea Nitrogen (BUN) concentrations, as a measure of kidney injury.

[2] = biological target: Cyclophilin A (Homo sapiens, UniProt P62937); assay: Cyclophilin inhibition binding, competitive ELISA (Cyclophilin A); conditions: human recombinant cyclophilin, read-out: CypA EC50
Protocol: (§1) The cyclophilin inhibition binding of compounds disclosed herein was determined using a competitive ELISA adapted from the methods described by Quesniaux et al. (Eur. J Immunol., 1987, 17:1359-1365). Activated ester of succinyl spacers bound to D-Lys^8-cylosporine A (D-Lys^8-Cs) are coupled to bovine serum albumin (BSA) through D-lysyl residue in position 8. BSA is dissolved in 0.1 M borate buffer, pH 9.0 (4 mg in 1.4 ml). A hundredfold molar excess of D-Lys^8-Cs dissolved in dimethyl formamide (0.6 ml) is added drop wise to the BSA under vigorous stirring. The coupling reaction is performed for 2 to 3 hours at room temperature under mild stirring and the conjugate is extensively dialyzed against phosphate-buffered saline (PBS, pH 7.4).
(§2) Microtiter Plates are coated with D-Lys^8-Cs-BSA conjugate (2 μg/ml in PBS for 24 hours at 4° C.). Plates are washed with Tween®/PBS and with PBS alone. To block nonspecific binding, 2% BSA/PBS (pH 7.4) is added to the wells and allowed to incubate for 2 hours at 37° C. […] Cyclophilin is detected with anti-cyclophilin rabbit antiserum diluted in 1% BSA containing PBS and incubates overnight at 4° C. […] Bound rabbit antibodies are then detected by goat anti-rabbit IgG conjugated to alkaline phosphatase diluted in 1% BSA-PBS and allowed to incubate for 2 hours at 37° C. […]

[3] = biological target: Cyclophilin D (Homo sapiens, UniProt P30405); assay: Cyclophilin inhibition binding, competitive ELISA (Cyclophilin D); conditions: human recombinant cyclophilin, read-out: CypD EC50
Protocol: as §1, §2

[4] = biological target: cyclophilin B (Homo sapiens, UniProt P23284); assay: Cyclophilin inhibition binding, competitive ELISA (Cyclophilin B); conditions: human recombinant cyclophilin, read-out: EC50 against cyclophilin B
Protocol: as §1, with “[…] After acetone precipitation of an aliquot of the conjugated protein, no covalently bound D-Lys^8-Cs remains in the acetone solution” for “The coupling reaction is performed for 2 to 3 hours at room temperature under mild stirring”, “extent of cyclosporine covalent binding” for “conjugate”, “calculated.” for “extensively dialyzed against phosphate-buffered saline (PBS, pH 7.4).”
Microtiter Plates are coated with D-Lys^8-Cs-BSA conjugate (2 μg/ml in PBS for 24 hours at 4° C.). […] Cyclophilin is detected with anti-cyclophilin rabbit antiserum diluted in 1% BSA containing PBS and incubates overnight at 4° C. […] Bound rabbit antibodies are then detected by goat anti-rabbit IgG conjugated to alkaline phosphatase diluted in 1% BSA-PBS and allowed to incubate for 2 hours at 37° C. […] After incubation with 4-nitrophenyl phosphate (1 g/l in diethanolamine buffer, pH 9.8) for 1 to 2 hours at 37° C., the enzymatic reaction is measured spectrophotometrically at 405 nm using a spectrophotometer. […]

Chain of Cyclophilin D (P30405 30-207): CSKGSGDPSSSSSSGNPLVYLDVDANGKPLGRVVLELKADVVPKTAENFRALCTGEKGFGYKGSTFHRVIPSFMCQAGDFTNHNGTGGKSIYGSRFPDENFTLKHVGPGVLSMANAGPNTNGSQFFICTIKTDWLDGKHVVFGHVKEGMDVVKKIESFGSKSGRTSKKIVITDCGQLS
Chain of Cyclophilin A (P62937 whole entry): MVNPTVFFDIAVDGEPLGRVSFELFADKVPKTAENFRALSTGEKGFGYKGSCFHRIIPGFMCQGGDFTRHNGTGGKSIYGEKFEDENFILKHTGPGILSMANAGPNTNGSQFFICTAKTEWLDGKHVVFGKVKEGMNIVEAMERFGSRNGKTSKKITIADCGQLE
Chain of cyclophilin B (P23284 34-216): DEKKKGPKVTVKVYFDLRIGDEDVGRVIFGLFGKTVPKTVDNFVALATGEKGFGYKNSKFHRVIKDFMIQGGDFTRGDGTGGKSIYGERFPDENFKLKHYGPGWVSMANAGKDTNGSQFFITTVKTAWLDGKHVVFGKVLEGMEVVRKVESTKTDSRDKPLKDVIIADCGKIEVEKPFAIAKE

Question: How did the Creatinine ([1]; 3 mg/kg i.p. three times) turn out when `C/C=C/C[C@@H](C)[C@@H](O)[C@H]1C(=O)N[C@@H](CC)C(=O)N(C)CC(=O)N(C)[C@@H](CC(C)C)C(=O)N[C@@H](C(C)C)C(=O)N(C)[C@@H](CC(C)C)C(=O)N[C@@H](C)C(=O)N[C@H](C)C(=O)N(C)[C@@H](CC(C)C)C(=O)N(C)[C@@H](CC(C)C)C(=O)N(C)[C@@H](C(C)C)C(=O)N1C` [CsA, Cyclosporin A] was run?
Answer: 115 µmol/L

Question: What about the “Blood Urea Nitrogen” value ([1]; 10 mg/kg i.p. three times, 24 hours after ligation/release) of the same compound?
Answer: 42 mmol/L

Question: What about the Creatinine ([1]; 10 mg/kg i.p. three times) of the same compound?
Answer: 290 µmol/L

Question: Which EC50 [2] does the source give for `C/C=C/C[C@@H](C)[C@@H](O)[C@H]1C(=O)N[C@@H](CC)C(=O)N(C)[C@H](OCCNC)C(=O)N(C)[C@@H](CC(C)C)C(=O)N[C@@H](C(C)C)C(=O)N(C)[C@@H](CC(C)C)C(=O)N[C@@H](C)C(=O)N[C@H](C)C(=O)N(C)[C@@H](CC(C)C)C(=O)N(C)[C@@H](CC(C)C)C(=O)N(C)[C@@H](C(C)C)C(=O)N1C` [Entry 1] here?
Answer: 61 nM

Question: What about the EC50 [3] of the same compound?
Answer: 2170 nM

Question: With `C/C=C/C[C@@H](C)[C@@H](O)[C@H]1C(=O)N[C@@H](CC)C(=O)N(C)[C@H](OCCN(C)C)C(=O)N(C)[C@@H](CC(C)C)C(=O)N[C@@H](C(C)C)C(=O)N(C)[C@@H](CC(C)C)C(=O)N[C@@H](C)C(=O)N[C@H](C)C(=O)N(C)[C@@H](CC(C)C)C(=O)N(C)[C@@H](CC(C)C)C(=O)N(C)[C@@H](C(C)C)C(=O)N1C` [Compound 1] as the compound, how does the EC50 [4] read?
Answer: < 100 nM
